These results are taken from publication PMC5259778, “Candidate pheromone receptors of codling moth Cydia pomonella respond to pheromones and kairomones” (Scientific Reports, 2017).

The test system of experiment [1] is CpomOR6a. The experiment can be described thus: Single sensillum recordings, CpomOR6a expressed in Drosophila at1 OSNs. It counts as cell-based, Cydia pomonella. The settings on record: for Spike/s: 10 μg per stimulus. The source says: To perform heterologous expression in D. melanogaster OSNs, CpomORs were amplified using primers in Table 2 and purified PCR products were cloned into the PCR8/GW/TOPO plasmid (Invitrogen) following the recommended protocol. Cassettes with inserts were then transferred from their PCR8/GW/TOPO plasmids to the destination vector (pUASg-HA.attB, constructed by E. Furger and J. Bischof, kindly provided by the Basler group, Zürich), using the Gateway LR Clonase II kit (Invitrogen). The integrity and orientation of inserts was confirmed by sequencing (Sanger sequencer, 3730xl). Transformant UAS-CpomOR3 and UAS-CpomOR1 lines were generated by Best Gene (Chino Hills, CA, USA), using the PhiC31 integrase system, while the transformant UAS-CpomOR6a line was generated in our labs. Briefly, recombinant pUASg-HA.attB-CpomOR plasmids were injected into embryos of a D. melanogaster line containing an attP insertion site within the third chromosome (genotype y1 M{vas-int.Dm}ZH-2A w*; M{3xP3-RFP.attP}ZH-86Fb), leading to non-random integration. To drive expression of CpomORs in at1 OSNs in place of the endogenous receptor Or67d, transformant UAS-CpomOR lines were crossed to the knock-in Or67d^GAL4 line (kindly provided by Barry Dickson) to generate double homozygous lines w^+;UAS-CpomOR; Or67d^GAL4. Additionally, to drive expression of CpomOR3 in ab3A OSNs, the UAS-CpomOR3 line was crossed to the Δhalo;Or22a-Gal4 mutant line[20][57]. To verify insertion of UAS-CpomORs constructs into the genome, gDNA was extracted and used as template in PCR with primers for the full ORF of CpomORs (Table 2).
CpomOR1 and CpomOR6a expressed in at1 OSNs, and CpomOR3 expressed in ab3A OSNs, were tested through single sensillum recordings (SSR). Three to 8-day-old flies were immobilized in 100 μL pipette tips with only the top half of the head protruding. The left antenna of each insect was gently pushed with a glass capillary against a double-sided adhesive tape placed on a piece of glass. This piece of glass and the pipette tip were fixed with dental wax on a microscope slide. Electrolytically sharpened tungsten electrodes (Harvard Apparatus Ltd, Edenbridge, United Kingdom) were used to penetrate the insect´s body. The reference electrode was manually inserted in the right eye of the fly, while the recording electrode was manoeuvred with a DC-3K micromanipulator equipped with a PM-10 piezo translator (Märzhäuser Wetzler GmbH, Wetzler, Germany) and inserted at the base of the determined sensilla. Signals coming from the olfactory sensory neurons were amplified 10 times with a probe (INR-02, Syntech, Hilversum, the Netherlands), digitally converted through an IDAC-4-USB (Syntech) interface, and visualized and analysed with the software Autospike v. 3.4 (Syntech). A constant flow of 0.65 m/s of humidified air (charcoal-filtered) was delivered through a glass tube to the antenna. The panel of odorants was given to the insect by inserting pipettes containing a piece of filter paper with the correspondent stimulus in a lateral hole of the glass tube and puffing a flow of 2.5 mL of air during 0.5 s through the pipette. For CpomOR1 and CpomOR6a the panel of odorants was prepared by applying 10 μL of a solution of 1.0 μg/μL of the compounds in Supplementary Dataset S2 and Supplementary Dataset S3, for a total amount of 10 μg per stimulus. In the case of CpomOR3, a similar dilution process was used for the dose response experiments of ethyl-(E,Z)-2,4-decadienoate and methyl-(E,Z)-2,4-decadienoate, as well for dose response of experiments of codlemone acetate in CpomOR6a. Compounds were diluted from concentrations ranging from 0.01 ng/μL to 10 μg/μL in decadic steps, allowing reaching concentrations from 100 pg to 100 μg per stimulus when 10 μL of the dilution was applied in the piece of filter paper. […]

Experiment [2] concerns CpomOR1. Description: Single sensillum recordings, CpomOR1 expressed in Drosophila at1 OSNs. It counts as cell-based, Cydia pomonella.
[3] abbreviates: replicate 1, 10 μg per stimulus.
The mark [4] stands for this setting: replicate 2, 10 μg per stimulus.
Where [5] appears, read: replicate 3, 10 μg per stimulus.
[6] abbreviates: replicate 4, 10 μg per stimulus.
Where [7] appears, read: replicate 5, 10 μg per stimulus.

On to `C/C=C/C=C/CCCCCCCOC(C)=O` [codlemone acetate, (E,E)-8,10-dodecadien-1-yl acetate], for which the “response compared with the solvent” value in experiment [1] (10 μg doses, Mann-Whitney U Test, p < 0.05) is “strongest response significantly different from the solvent”. Besides, the threshold for detection in experiment [1] (dose response, dose per stimulus) is listed as 1.0 microgram. For the same compound, the Spike/s was 46 Spike/s in experiment [1] (replicate 1); 50 Spike/s in experiment [1] (replicate 2); 44 Spike/s in experiment [1] (replicate 3); 54 Spike/s in experiment [1] (replicate 4); 80 Spike/s in experiment [1] (replicate 5); 46 Spike/s in experiment [1] (replicate 6). The Spike/s worked out at 82 Spike/s in experiment [1] (replicate 7), 62 Spike/s in experiment [1] (replicate 8) and 58 Spike/s in experiment [1] (replicate 9). In addition, the Spikes/s in experiment [2] (setting [3]) is given as 2 Spikes/s; in experiment [2] (setting [4]), 4 Spikes/s; in experiment [2] (setting [5]) it was 4 Spikes/s; in experiment [2] (setting [6]) it was 2 Spikes/s; in experiment [2] (setting [7]), 4 Spikes/s.

On to `C/C=C/C=C/CCCCCCCO` [codlemone, (E,E)-8,10-dodecadien-1-ol], for which the Spike/s is 0 Spike/s in experiment [1] (replicate 1); 0 Spike/s in experiment [1] (replicate 2); -4 Spike/s in experiment [1] (replicate 3); 6 Spike/s in experiment [1] (replicate 4); 0 Spike/s in experiment [1] (replicate 5); 2 Spike/s in experiment [1] (replicate 6). For the same compound, the Spike/s was 14 Spike/s in experiment [1] (replicate 7), 0 Spike/s in experiment [1] (replicate 8) and 2 Spike/s in experiment [1] (replicate 9). The Spikes/s in experiment [2] (replicate 1, 100 ng) is listed as -4 Spikes/s; in experiment [2] (setting [3]), 6 Spikes/s; in experiment [2] (replicate 2, 100 ng), 2 Spikes/s; in experiment [2] (setting [4]), 2 Spikes/s; in experiment [2] (replicate 3, 100 ng), 2 Spikes/s; in experiment [2] (setting [5]), 0 Spikes/s. Also, the Spikes/s in experiment [2] (replicate 4, 100 ng) is reported as -8 Spikes/s; in experiment [2] (setting [6]) it was -12 Spikes/s; in experiment [2] (replicate 5, 100 ng) it was -4 Spikes/s; in experiment [2] (setting [7]), 0 Spikes/s.
